Results from US4783462A, “3(2H)pyridazinone, and anti-allergic agent containing it” (Nissan Chemical Industries Ltd., priority 1985, dated 1988).

test system: LTC4; experiment: Antagonism in isolated guinea-pig trachea, Test method (i) (Table 3, given as LTC4 antagonism); assay type: cell-based; details: Cavia porcellus, 5 min, test compound 10^-5 g/ml, given as LTC4 antagonisms
Method: (i) LTC4 and LTD4 antagonisms in guinea-pig trachea
Antagonisms for LTC4 and LTD4 were determined in isolated guinea-pig trachea prepared as spiral strip. Tracheal preparations were suspended under 1 g tension in 10 ml organ baths and they were incubated for 1 hr prior to use. Contractile responses to LTC4 (2×10^-8 g/ml) and LTD4 (2×10^-8 g/ml) were obtained after the maximal response to histamine (10^-4 M). Test compounds dissolved in 100% dimethyl sulfoxide were added to the organ baths (final concentration of 10^-5 g/ml or 10^-6 g/ml) 5 min prior to LTC4 and LTD4 addition, and then contractile responses to LTC4 and LTD4 were compared with those of control which was obtained from a paired trachea in the absence of test compounds. LTC4 - and LTD4 -induced contractions were expressed as a percentage of the maximal response to histamine. The antagonism was determined as follows:
Antagonism (%)=(1.0-% contraction in test/% contraction in […]

SMILES	inhibition at 10 µg/mL
CCCc1cc(-c2nnn[nH]2)ccc1OCCCNc1cnn(C(C)(C)C)c(=O)c1Cl [Compound No. 2, 4-Chloro-5-{3-[2-n-propyl-4-(1H-tetrazol-5-ylphenoxy)]propylamino}-2-t-butyl-3(2H)pyridazinone]	15%
CCCc1cc(C(=O)OC)ccc1OCCCNc1cnn(C(C)(C)C)c(=O)c1Cl [Compound No. 3]	28%
CCOC(=O)c1ccc(OCCCNc2cnn(C(C)(C)C)c(=O)c2Cl)c(Cl)c1 [Compound No. 8]	32%
CC(C)(C)n1ncc(NCCCOc2ccc(C(=O)O)cc2Cl)c(Cl)c1=O [Compound No. 9]	14%
CCn1ncc(NCCCOc2ccc(C(=O)O)cc2Cl)c(Cl)c1=O [Compound No. 11]	13%
CCCc1cc(C(=O)O)ccc1OCCCNc1cnn(C)c(=O)c1Cl [Compound No. 12]	35%
Cc1ccc(S(=O)(=O)OCCCNc2cnn(C(C)(C)C)c(=O)c2Cl)cc1 [Compound No. 15, 4-Chloro-5-[3-(4-methylphenylsulfonyloxy)propylamino]-2-t-butyl-3(2H)pyridazinone]	40%
COc1ccc(CCNc2cnn(C(C)(C)C)c(=O)c2Cl)cc1OC [Compound No. 16]	31%
CCn1ncc(NCCCOC(=O)c2ccc(Cl)cc2)c(Cl)c1=O [Compound No. 17]	45%
CCn1ncc(NCCc2ccc(OC)c(OC)c2)c(Cl)c1=O [Compound No. 18]	20%
CCOC(=O)c1ccc(OCCCOc2cnn(CC)c(=O)c2Cl)c(Cl)c1 [Compound No. 30, 4-Chloro-5-[3-(2-chloro-4-ethoxycarbonylphenoxy)propoxy]-2-ethyl-3(2H)pyridazinone]	40%
CCCc1c(OCCCOc2cnn(C(C)(C)C)c(=O)c2Cl)ccc(C(C)=O)c1O [Compound No. 37, 4-Chloro-5-[3-(2-n-propyl-3-hydroxy-4-acetylphenoxy)propoxy]-2-t-butyl-3(2H)pyridazinone]	40%
CCCc1cc(C(=O)OCC)ccc1OCCCNc1cnn(C(C)C)c(=O)c1 [Compound No. 63, 5-[3-(2-n-propyl-4-ethoxycarbonylphenoxy)propylamino]-2-i-propyl-3(2H)pyridazinone]	54%
CCCc1cc(C(=O)OC)ccc1OCCCN(C)c1cnn(C(C)C)c(=O)c1Cl [Compound No. 73, 4-Choloro-5-[3-(2-n-propyl-4-methoxycarbonylphenoxy)propyl-N-methylamino]-2-i-propyl-3(2H)pyridazinone]	48%
CCc1cc(C=O)ccc1OCCCNc1cnn(CC)c(=O)c1Cl [Compound No. 92, 4-chloro-5-[3-(2-ethyl-4-formylphenoxy)propylamino]-2-ethyl-3(2H) pyridazinone]	100%
CCc1cc(C=CC(=O)O)ccc1OCCCNc1cnn(CC)c(=O)c1Cl [Compound No. 93, 4-Chloro-5-{3-[2-ethyl-4-(2-carboxyethenyl)phenoxy]propylamino}-2-ethyl-3(2H)pyridazinone]	79%
CCCc1cc(O)ccc1OCCCNc1cnn(CC)c(=O)c1Cl [Compound No. 108, 4-Chloro-5-[3-(2-n-propyl-4-hydroxyphenoxy)propylamino]-2-ethyl-3(2H)pyridazinone]	94%
Cc1ccc(S(=O)(=O)OCC(O)CNc2cnn(C(C)C)c(=O)c2Cl)cc1 (stereo not drawn) [Compound No. 143, 4-Chloro-5-[3-(4-methylphenylsulfonyloxy)-2-hydroxypropylamino]-2-i-propyl-3(2H)pyridazinone]	26%
CCCc1cc(C#N)ccc1SCC(O)CNc1cnn(C(C)C)c(=O)c1Cl (stereo not drawn) [Compound No. 153, 4-Chloro-5-[3-(2-n-propyl-4-cyanothiophenoxy)-2-hydroxypropylamino]-2-i-propyl-3(2H)pyridazinone]	64%

SMILES	inhibition at 10 µg/mL
CCCc1cc(C(=O)O)ccc1SCC(O)CNc1cnn(C(C)C)c(=O)c1Cl (stereo not drawn) [Compound No. 154, 4-Chloro-5-[3-(2-n-propyl-4-carboxythiophenoxy)-2-hydroxypropylamino]-2-i-propyl-3(2H)pyridazinone]	20%
CCCc1cc(C(=O)OC)ccc1SCC(O)CNc1cnn(C(C)C)c(=O)c1Cl (stereo not drawn) [Compound No. 155, 4-Chloro-5-[3-(2-n-propyl-4-methoxycarbonylthiophenoxy)-2-hydroxypropylamino]-2-i-propyl-3(2H) pyridazinone]	55%
CCCc1cc(C#N)ccc1OCC(CN(C)c1cnn(C(C)C)c(=O)c1Cl)OC (stereo not drawn) [Compound No. 157, 4-Chloro-5-[3-(2-n-propyl-4-cyanophenoxv)-2-methoxypropyl-N-methylamino]-2-i-propyl-3(2H)pyridazinone]	62%
COC(=O)CCC(=O)c1ccc(OCC(O)CNc2cnn(C(C)C)c(=O)c2Cl)cc1 (stereo not drawn) [Compound No. 166, 4-chloro-5-{3-[4-(β-methoxycarbonylpropyonyl)phenoxy]-2-hydroxypropylamino}-2-i-propyl-3(2H) pyridazinone]	25%
COC(=O)CC(C)C(=O)c1ccc(OCC(CN(C)c2cnn(C(C)C)c(=O)c2Cl)OC)cc1 (stereo not drawn) [Compound No. 167, 4-Chloro-5-{3-[4-(β-methoxycarbonyl-α-methylpropionyl)phenoxy]-2-methoxypropyl-N-methylamino}-2-i-propyl-3(2H)pyridazinone]	30%
CCCc1cc(C#N)ccc1OCC(O)COc1cnn(C(C)C)c(=O)c1Cl (stereo not drawn) [Compound No. 171, 4-Chloro-5-[3-(2-n-propyl-4-cyanophenoxy)-2-hydroxypropoxy]-2-i-propyl-3(2H)pyridazinone]	66%
CCCc1cc(C#N)ccc1OCC(COc1cnn(C(C)C)c(=O)c1Cl)OC (stereo not drawn) [Compound No. 172, 4-Chloro-5-[3-(2-n-propyl-4-cyanophenoxy)-2-methoxypropoxy]-2-i-propyl-3(2H)pyridazinone]	79%
CCCc1cc(C(=O)O)ccc1OCCCNc1cnn(C(C)(C)C)c(=O)c1Cl [compound 5]	33%
COc1ccc(CCNc2cnn(C(C)(C)C)c(=O)c2Cl)cc1 [compound 19]	60%
CCCc1c(OCCCOc2cnn(C(C)(C)C)c(=O)c2Cl)ccc2c(=O)cc(C(=O)O)oc12 [compound 24]	40%
CCCc1c(OCCCOc2cnn(C(C)(C)C)c(=O)c2CC)ccc2c(=O)cc(C(=O)OCC)oc12 [compound 26]	15%
CCn1ncc(OCCCOc2ccc(C(=O)O)cc2Cl)c(Cl)c1=O [compound 31]	19%
CCOC(=O)c1ccc(OCCCOc2cnn(C(C)(C)C)c(=O)c2Cl)c(Cl)c1 [compound 32]	29%
CC(C)(C)n1ncc(OCCCOc2ccc(C(=O)O)cc2Cl)c(Cl)c1=O [compound 33]	15%
COc1cccc(OCCCOc2cnn(C(C)(C)C)c(=O)c2Br)c1 [compound 34]	61%
CCCc1cc(-c2nn[nH]n2)ccc1OCCCNc1cnn(CC)c(=O)c1Cl [compound 48]	36%
CCOC(=O)c1ccc(OCCCNc2cnn(CC)c(=O)c2Cl)c(OC)c1 [compound 49]	57%
CCn1ncc(NCCCOc2ccccc2OC)c(Cl)c1=O [compound 50]	35%
CCn1ncc(NCCCOc2ccc(C(=O)O)cc2OC)c(Cl)c1=O [compound 52]	23%

SMILES	inhibition at 10 µg/mL
CCOc1ccc(OCCCNc2cnn(CC)c(=O)c2Cl)cc1 [compound 53]	59%
CCn1ncc(NCCCOc2ccc(C)cc2)c(Cl)c1=O [compound 54]	64%
CCn1ncc(NCCCOc2ccc(OC)cc2)c(Cl)c1=O [compound 56]	62%
CCn1ncc(NCCCOc2ccccc2C)c(Cl)c1=O [compound 57]	83%
COc1ccc(OCCCNc2cnn(C(C)C)c(=O)c2Cl)cc1 [compound 58]	88%
COc1ccccc1OCCCNc1cnn(C(C)C)c(=O)c1Cl [compound 59]	82%
CCCc1cc(C#N)ccc1SCCCNc1cnn(C(C)C)c(=O)c1Cl [compound 61]	73%
CCCc1cc(C(=O)O)ccc1SCCCNc1cnn(C(C)C)c(=O)c1Cl [compound 62]	57%
CC(C)n1ncc(NCCc2ccc(O)cc2)c(Cl)c1=O [compound 66]	69%
CCCc1cc(-c2nnn[nH]2)ccc1SCCCNc1cnn(C(C)C)c(=O)c1Cl [compound 68]	33%
C=CCc1cc(C(=O)O)ccc1OCCCNc1cnn(C(C)C)c(=O)c1Cl [compound 70]	65%
CC(C)n1ncc(NCCCOc2ccc(C(=O)CCC(=O)O)cc2)c(Cl)c1=O [compound 75]	16%
COC(=O)CCC(=O)c1ccc(OCCCNc2cnn(C(C)C)c(=O)c2Cl)cc1 [compound 76]	57%
COC(=O)CCC(=O)c1ccc(OCCCN(C)c2cnn(C(C)C)c(=O)c2Cl)cc1 [compound 77]	17%
CC(C)n1ncc(N(C)CCCOc2ccc(C(=O)CCC(=O)O)cc2)c(Cl)c1=O [compound 78]	32%
COC(=O)c1ccc(OCCCOc2cnn(C(C)C)c(=O)c2Cl)c(C(C)C)c1 [compound 79]	58%
C=CCc1cc(C(=O)OC)ccc1OCCCNc1cnn(CC)c(=O)c1Cl [compound 81]	80%
CCCc1cc(C(=O)O)ccc1OCCCOc1cnn(CC)c(=O)c1Cl [compound 83]	46%
CCCc1cc(C(=O)OC)ccc1OCCCOc1cnn(CC)c(=O)c1Cl [compound 84]	85%
